Test results from patent US9520611B2, “Redox flow battery” (SAMSUNG ELECTRONICS CO., LTD., priority 2013, dated 2016).
Like-named read-outs stand apart in the source and are kept apart here.

Key:
[1] = Solubility measurement in a non-aqueous polar solvent; assay type: physicochemical
Procedure: A density of the solution was measured and calculated in a molar concentration.

[2] = Cyclic voltammetry of organic electrolytic solution; assay type: physicochemical; conditions: unit inferred; Ag/Ag+ reference electrode (0.3 M AgNO3 in acetonitrile), carbon felt working electrode
Excerpt: For the purpose of measurement of cyclic voltammetry, a cell that includes an Ag/Ag^+ electrode prepared by dissolving 0.3 M AgNO3 in an acetonitrile solvent as a reference electrode, a carbon felt as a working electrode, and platinum as a counter electrode was used.
Referring to FIGS. 2A to 2C, the graphs of an electrolyte including a metal-ligand coordination compound show a reversible oxidation/reduction peak.

[3] = in 50 mL acetonitrile and propylene carbonate 1:1, calculated in a molar concentration, unit not given

Compound	Solubility [1]	E^0 [2] [V]	Solubility [1, 3]	Solubility compared with the compounds that include identical ligands (dipole moment sum 0) [1]
Cc1ccnc(-c2cc(C)ccn2)c1.Cc1ccnc(-c2cc(C)ccn2)c1.Cc1ccnc(-c2cc(C)ccn2)c1.O=S(=O)([N-]S(=O)(=O)C(F)(F)F)C(F)(F)F.O=S(=O)([N-]S(=O)(=O)C(F)(F)F)C(F)(F)F.[Fe+2] [Preparation Example 5, Fe^2+-(4,4′-diMe-bpy)3 [TFSI]2]	0.65	0.43	–	–
O=S(=O)([N-]S(=O)(=O)C(F)(F)F)C(F)(F)F.O=S(=O)([N-]S(=O)(=O)C(F)(F)F)C(F)(F)F.[Fe+2].c1ccc(-c2cccc(-c3ccccn3)n2)nc1.c1ccc(-c2cccc(-c3ccccn3)n2)nc1 [Preparation Example 7, Fe^2+-(terpy)2 [TFSI]2]	–	0.7	1.20	–
O=S(=O)([N-]S(=O)(=O)C(F)(F)F)C(F)(F)F.O=S(=O)([N-]S(=O)(=O)C(F)(F)F)C(F)(F)F.[Fe+2].c1ccc(-c2ccccn2)nc1.c1ccc(-c2ccccn2)nc1.c1ccc(-c2ccccn2)nc1 [Preparation Example 4, Fe^2+-(bpy)3 [TFSI]2]	–	0.68	–	–
O=S(=O)([N-]S(=O)(=O)C(F)(F)F)C(F)(F)F.O=S(=O)([N-]S(=O)(=O)C(F)(F)F)C(F)(F)F.O=[N+]([O-])c1cc2cccnc2c2ncccc12.[Fe+2].c1ccc(-c2ccccn2)nc1.c1ccc(-c2ccccn2)nc1 [Preparation Example 2, Fe^2+-(5-NO2-phenanthroline)(bpy)2 [TFSI]2]	–	0.72	–	–
Fe^2+-(NO2-phenanthroline)3 [TFSI]2 [Preparation Example 6]	1020 mM	0.88	–	–
Clc1cc(-c2ccccn2)nc(-c2ccccn2)c1.O=S(=O)([N-]S(=O)(=O)C(F)(F)F)C(F)(F)F.O=S(=O)([N-]S(=O)(=O)C(F)(F)F)C(F)(F)F.[Fe+2].c1ccc(-c2cccc(-c3ccccn3)n2)nc1 [Preparation Example 3, Fe^2+-(terpy)(4′-chloro-terpy) [TFSI]2]	1.33	0.72	–	higher solubility
Cc1ccnc(-c2cc(C)ccn2)c1.Cc1ccnc(-c2cc(C)ccn2)c1.O=S(=O)([N-]S(=O)(=O)C(F)(F)F)C(F)(F)F.O=S(=O)([N-]S(=O)(=O)C(F)(F)F)C(F)(F)F.[Fe+2].c1ccc(-c2ccccn2)nc1 [Preparation Example 1, Fe^2+-(4,4′-diMebpy)2 (bpy) [TFSI]2]	–	0.56	–	–
Clc1cc(-c2ccccn2)nc(-c2ccccn2)c1.Clc1cc(-c2ccccn2)nc(-c2ccccn2)c1.O=S(=O)([N-]S(=O)(=O)C(F)(F)F)C(F)(F)F.O=S(=O)([N-]S(=O)(=O)C(F)(F)F)C(F)(F)F.[Fe+2] [Preparation Example 8, Fe^2+-(4′-chloro-terpy)2 [TFSI]2]	–	0.78	0.75	–
